Paper PMC6892255, “Identification of a potent small-molecule inhibitor of bacterial DNA repair that potentiates quinolone antibiotic activity in methicillin-resistant Staphylococcus aureus^” (Bioorganic & Medicinal Chemistry, 2019)

Columns and labels:
S. aureus SH1000 = assay: MIC / growth inhibition assay (end-point OD600), single agent; format: cell-based; settings: Staphylococcus aureus, SH1000, 18 h, end-point OD600 after 18 h, read-out: EC50 S. aureus (SH1000) Compound only
Excerpt: (§1) Minimum inhibitory concentration (MIC) assays were used to evaluate the antimicrobial activity of compounds against Gram-negative (E. coli) and Gram-positive (S. aureus) bacteria. […] Gram-positive bacteria are more susceptible to small-molecule penetration, and compounds were therefore assessed for growth inhibition against the S. aureus SH1000 strain.
(§2) 2.1. Biological and biochemical methods
(§3) Bacterial strains and culture conditions
(§4) Strains utilized in the present study are detailed in Table S1. All strains used were cultivated on Mueller Hinton Agar (MHA) and grown to stationary-phase in Mueller Hinton Broth (MHB) at 37 °C for 16 h, with shaking at 180 r.p.m.
(§5) Minimum inhibitory concentration (MIC) assays
(§6) MIC assays were performed in 96 well plates and MICs were determined in accordance with the broth microdilution protocol.4 Strains grown to stationary-phase in MHB were adjusted to 5 x 10^5 colony-forming units (CFU)/mL in fresh MHB (100 µL/well) supplemented with DMSO to ensure a constant concentration of 0.5% (v/v) DMSO across all experiments. Where […]
(§7) or H2O2 (200 μM). Test compounds were prepared as two-fold serial dilutions. Cells were […]
(§8) as the lowest concentration with no visible bacterial growth, and the optical density at 600 nm (OD600) was recorded. OD600 measurements were background corrected against no-inocula control and normalized to DMSO control for dose-response analysis. The EC50 value mean and SEM were calculated from individual EC50 values from three biological replicates. […]

E. coli K-12 BW25113 = assay: as above; format: cell-based, Escherichia coli; settings: Escherichia coli, BW25113, end-point OD600 after 18 h, read-out: EC50 E. coli (K12 BW25113) Compound only
Excerpt: as §1, §2, §3, §4, §5, §6, §7, §8

[1] = tested on: methicillin-resistant S. aureus (MRSA, USA300 JE2); assay: Ciprofloxacin (CFX) potentiation in MRSA growth inhibition assay; format: cell-based, Staphylococcus aureus; settings: for EC50: read-out: EC50 S. aureus (USA300 JE2) Compound + CFX (9.4 μM), in presence of half-MIC CFX (9.4 μM)
Protocol: as §2, §3, §4, §5, §6, §7, §8

[2] = tested on: methicillin-resistant S. aureus (MRSA, USA300 JE2); assay: MIC / growth inhibition assay (end-point OD600), single agent; format: cell-based, Staphylococcus aureus
Excerpt: as §1
Methicillin-resistant S. aureus (MRSA) is a multi-drug resistant bacterium responsible for a large number of nosocomial infections.[34] The emergence of community associated (CA)-MRSA capable of infection of healthy individuals highlights its significance and clinical relevance.[35]
as §2, §3, §4, §5, §6, §7, §8

MRSA (USA300 JE2) [3] = assay: Growth inhibition in the presence of H2O2; format: cell-based, Staphylococcus aureus; settings: read-out: EC50 Compound + H2O2 (200 µM); MRSA USA300 JE2, H2O2 200 µM
Protocol: (§9) The analogue panel was further tested for potentiation of alternative DNA-damaging agents Mitomycin-C (MMC) and hydrogen peroxide (Table S2), which function via alkylation and oxidization DNA bases, respectively.
as §2, §3, §4, §5, §6, §7, §8

MRSA (USA300 JE2) [4] = assay: Growth inhibition in the presence of mitomycin-C; format: cell-based, Staphylococcus aureus; settings: read-out: EC50 Compound + MMC (0.40 µM); MRSA USA300 JE2, mitomycin-C 0.40 µM
Protocol: as §9, §2, §3, §4, §5, §6, §7, §8

E. coli topoisomerase IV = target: T1, E. coli topoisomerase IV (Escherichia coli, UniProt P0AFI2+P20083); assay: Topoisomerase IV supercoiling relaxation assay (pQE80L); format: biochemical; settings: at 12.5 µM (compounds)
T1 construct: purchased Inspiralis
T1 sequence (P0AFI2 whole entry): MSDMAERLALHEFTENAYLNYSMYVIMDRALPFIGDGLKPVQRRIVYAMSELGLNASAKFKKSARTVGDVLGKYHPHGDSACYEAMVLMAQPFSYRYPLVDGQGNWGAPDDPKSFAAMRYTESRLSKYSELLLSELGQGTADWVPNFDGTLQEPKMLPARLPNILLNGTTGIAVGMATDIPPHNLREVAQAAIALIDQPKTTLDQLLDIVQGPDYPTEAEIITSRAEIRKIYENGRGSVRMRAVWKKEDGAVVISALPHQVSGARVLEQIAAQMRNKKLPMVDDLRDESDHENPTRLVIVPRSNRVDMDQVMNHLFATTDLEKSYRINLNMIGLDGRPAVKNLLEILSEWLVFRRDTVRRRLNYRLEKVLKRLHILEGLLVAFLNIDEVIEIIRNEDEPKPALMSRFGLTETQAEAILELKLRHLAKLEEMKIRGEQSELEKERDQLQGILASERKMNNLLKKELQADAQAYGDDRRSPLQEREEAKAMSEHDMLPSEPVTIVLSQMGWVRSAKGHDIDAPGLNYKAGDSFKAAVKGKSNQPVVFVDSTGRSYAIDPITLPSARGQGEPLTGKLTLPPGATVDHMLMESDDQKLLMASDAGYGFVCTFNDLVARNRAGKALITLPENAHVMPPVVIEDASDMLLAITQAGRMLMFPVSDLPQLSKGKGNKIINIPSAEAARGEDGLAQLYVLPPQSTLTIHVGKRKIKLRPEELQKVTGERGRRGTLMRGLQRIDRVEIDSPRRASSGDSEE
T1 sequence (P20083 whole entry): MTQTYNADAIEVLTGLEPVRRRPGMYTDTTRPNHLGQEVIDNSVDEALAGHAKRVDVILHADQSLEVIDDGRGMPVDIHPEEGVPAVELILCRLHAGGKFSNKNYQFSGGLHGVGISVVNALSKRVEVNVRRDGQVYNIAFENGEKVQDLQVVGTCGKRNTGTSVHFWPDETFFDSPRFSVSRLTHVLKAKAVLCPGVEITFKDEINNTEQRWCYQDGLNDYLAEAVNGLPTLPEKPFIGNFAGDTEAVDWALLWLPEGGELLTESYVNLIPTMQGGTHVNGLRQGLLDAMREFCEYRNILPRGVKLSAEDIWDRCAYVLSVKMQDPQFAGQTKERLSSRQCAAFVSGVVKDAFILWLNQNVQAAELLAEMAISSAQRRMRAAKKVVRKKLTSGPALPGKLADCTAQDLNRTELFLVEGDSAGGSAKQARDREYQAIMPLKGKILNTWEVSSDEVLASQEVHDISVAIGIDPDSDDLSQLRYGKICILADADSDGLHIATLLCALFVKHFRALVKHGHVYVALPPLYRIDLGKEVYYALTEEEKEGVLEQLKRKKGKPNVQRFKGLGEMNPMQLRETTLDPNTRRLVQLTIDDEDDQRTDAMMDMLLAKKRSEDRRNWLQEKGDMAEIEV
Protocol: 2.1. Biological and biochemical methods […]
E. coli DNA gyrase supercoiling assay (Inspiralis) was performed according to the manufacturer’s instructions, ensuring a constant concentration of 1% (v/v) DMSO. Samples were separated on a 1% (w/v) agarose gel prepared with Tris/Borate/EDTA (TBE) buffer (1 M Tris-borate, 20 mM EDTA, pH 8.0). Electrophoresis was performed at 100 V until the bromophenol blue dye had run >6 cm to ensure resolution of relaxed and supercoiled DNA.
The gel was stained with SYBR Safe DNA gel stain (Invitrogen, 1:10,000 dilution in TBE) for 30 min, and visualized on a Syngene Gel Doc system. Band intensity was quantified using ImageJ software and the fraction of supercoiled plasmid was determined as the ratio of the density of the supercoiled band to the total density. Values were background corrected against the no-gyrase control and normalized to DMSO control for dose-response analysis.
E. coli topoisomerase IV supercoiling relaxation assay (Inspiralis) was performed according to the manufacturer’s instructions, ensuring a constant concentration of 1% (v/v) DMSO.
Supercoiled pQE80L was prepared via plasmid purification and used as the substrate for the reaction. Reactions were analyzed as described for DNA gyrase assays. […]

[5] = Staphylococcus aureus, 18 h, read-out: EC50 S. aureus (USA300 JE2) Compound only, single agent, end-point OD600 after 18 h

Row | Structure (SMILES) | EC50 (S. aureus SH1000) | EC50 (E. coli K-12 BW25113) | EC50 [1] | EC50 [2, 5] | further results
1 | O=C(O)c1cn(C2CC2)c2cc(N3CCN(C(=S)Nc4cc(Cl)cc(Cl)c4)CC3)c(F)cc2c1=O [Compound 12] | 84 ± 7 nM | 420 ± 20 nM | 43 ± 11 nM | 3600 ± 400 nM | fold less potent against JE2 compared to SH1000 ([2]; ratio of single-agent EC50 values): > 20 fold; EC50 (MRSA (USA300 JE2) [3]): 2900 ± 800 nM; EC50 (MRSA (USA300 JE2) [4]): 800 nM
2 | O=C(O)c1cn(C2CC2)c2cc(N3CCN(C(=S)Nc4cccc([N+](=O)[O-])c4)CC3)c(F)cc2c1=O [Compound 13] | 110 ± 30 nM | 270 ± 20 nM | 430 ± 90 nM | > 25000 nM | –
3 | O=C(O)c1cn(C2CC2)c2cc(N3CCN(C(=S)Nc4ccc([N+](=O)[O-])cc4)CC3)c(F)cc2c1=O [Compound 14] | 50 ± 8 nM | 260 ± 40 nM | 49 ± 6 nM | > 12500 nM | fold increase in potency of para- over meta-substituted analogue, potentiation by CFX ([1]; JE2 + CFX, 4 vs 1, 10 vs 7, 14 vs 13): ~10 fold
4 | CCn1cc(C(=O)O)c(=O)c2cnc(N3CCN(C(=O)Nc4ccccc4)CC3)nc21 [Compound 15] | > 12500 nM | > 12500 nM | > 12500 nM | – | Inhibition of topoisomerase IV (E. coli topoisomerase IV): not inhibited and not; Effect of the presence of CFX on potency ([1]; JE2, CFX 9.4 µM): unaffected; EC50 ([2]; Staphylococcus aureus, single agent, end-point OD600 after 18 h, read-out: EC50 S. aureus (USA300 JE2) Compound only): > 12500 nM
5 | CC1CN(c2cc3c(cc2F)c(=O)c(C(=O)O)cn3C2CC2)CCN1C(=S)Nc1ccc(C(F)(F)F)cc1 (stereo not drawn) [Compound 16] | 260 ± 40 nM | 300 ± 60 nM | 18 ± 3 nM | 3900 ± 400 nM | –
6 | O=C(O)c1cn(C2CC2)c2cc(N3CCC(NC(=S)Nc4ccc(C(F)(F)F)cc4)C3)c(F)cc2c1=O (stereo not drawn) [Compound 17] | 1600 ± 400 nM | 2800 ± 400 nM | 3200 ± 300 nM | 53000 ± 13000 nM | –
7 | O=C(O)c1cn(C2CC2)c2cc(NCCNC(=S)Nc3ccc(C(F)(F)F)cc3)c(F)cc2c1=O [Compound 18] | 7700 ± 1200 nM | > 100000 nM | 2500 ± 300 nM | 9700 ± 1000 nM | –
8 | CC(C)(C)OC(=O)NCCNC(=O)c1cn(C2CC2)c2cc(N3CCN(C(=S)Nc4ccc(C(F)(F)F)cc4)CC3)c(F)cc2c1=O [Compound 19] | > 100000 nM | > 100000 nM | – | > 100000 nM | –
9 | NCCNC(=O)c1cn(C2CC2)c2cc(N3CCN(C(=S)Nc4ccc(C(F)(F)F)cc4)CC3)c(F)cc2c1=O [Compound 20] | 76000 ± 5000 nM | 47000 ± 1000 nM | – | 78000 ± 8000 nM | –
10 | OO [Compound H2O2, hydrogen peroxide, reference compound] | – | – | – | – | EC50 ([2]; single agent, end-point OD600 after 18 h, read-out: EC50 S. aureus (USA300 JE2) Compound only): 147000 ± 11000 nM
11 | CO[C@@]12[C@H](COC(N)=O)C3=C(C(=O)C(C)=C(N)C3=O)N1C[C@@H]1N[C@@H]12 [MMC, Mitomycin-C, reference compound] | – | – | – | 330 ± 10 nM | –
